Experimental data as given in PubChem BioAssay AID248 (DTP/NCI, 2004).
Where “and” joins values, the source holds several entries; their conditions need not be identical. Equal entries are not always repeated. Toxic doses and inconclusive results are not listed. Cut-off read from the data, not from the text of the source: active = T/C of 150% or more; inactive = T/C below 125%.

Test system: L1210 leukemia ip in BDF1 mice, survival T/C
Assay: NCI In Vivo Anticancer Drug Screen. Data for tumor model L1210 Leukemia (intraperitoneal) in B6D2F1 (BDF1) mice
Conditions: endpoint: mean survival time, higher = longer survival
Method in brief: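 Antitumor effect is assessed in tumor-bearing animals. Survival in the compound arm is compared with a vehicle-dosed control arm and expressed as their quotient.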

[1] = dose: 100.0 mg/kg/injection, schedule: Q04DX002 (ip), vehicle: saline with Tween-80
[2] = dose: 200.0 mg/kg/injection, schedule: Q04DX002 (ip), vehicle: saline with Tween-80
[3] = dose: 400.0 mg/kg/injection, schedule: Q04DX002 (ip), vehicle: saline with Tween-80
[4] = dose: 100.0 mg/kg/injection, schedule: Q01DX009 (ip), vehicle: Klucel (hydroxypropylcellulose) (HPC)
[5] = dose: 200.0 mg/kg/injection, schedule: Q01DX009 (ip), vehicle: Klucel (hydroxypropylcellulose) (HPC)
[6] = dose: 100.0 mg/kg/injection, schedule: Q01DX009 (ip), vehicle: saline with Tween-80
[7] = dose: 200.0 mg/kg/injection, schedule: Q01DX009 (ip), vehicle: saline with Tween-80
[8] = dose: 400.0 mg/kg/injection, schedule: Q01DX009 (ip), vehicle: saline with Tween-80
[9] = dose: 100.0 mg/kg/injection, schedule: Q04DX002 (ip), vehicle: Klucel (hydroxypropylcellulose) (HPC)
[10] = dose: 100.0 mg/kg/injection, schedule: Q04DX003 (ip), vehicle: Klucel (hydroxypropylcellulose) (HPC)
[11] = dose: 200.0 mg/kg/injection, schedule: Q04DX002 (ip), vehicle: Klucel (hydroxypropylcellulose) (HPC)
[12] = dose: 200.0 mg/kg/injection, schedule: Q04DX003 (ip), vehicle: Klucel (hydroxypropylcellulose) (HPC)
[13] = dose: 400.0 mg/kg/injection, schedule: Q01DX009 (ip), vehicle: Klucel (hydroxypropylcellulose) (HPC)
[14] = dose: 400.0 mg/kg/injection, schedule: Q04DX002 (ip), vehicle: Klucel (hydroxypropylcellulose) (HPC)
[15] = dose: 400.0 mg/kg/injection, schedule: Q04DX003 (ip), vehicle: Klucel (hydroxypropylcellulose) (HPC)
[16] = dose: 100.0 mg/kg/injection, schedule: Q04DX002 (ip), vehicle: saline
[17] = dose: 200.0 mg/kg/injection, schedule: Q04DX002 (ip), vehicle: saline
[18] = dose: 50.0 mg/kg/injection, schedule: Q01DX001 (ip), vehicle: carboxymethylcellulose (CMC)
[19] = dose: 100.0 mg/kg/injection, schedule: Q01DX001 (ip), vehicle: carboxymethylcellulose (CMC)
[20] = dose: 200.0 mg/kg/injection, schedule: Q01DX001 (ip), vehicle: carboxymethylcellulose (CMC)
[21] = dose: 400.0 mg/kg/injection, schedule: Q01DX001 (ip), vehicle: carboxymethylcellulose (CMC)
[22] = dose: 100.0 mg/kg/injection, schedule: Q01DX001 (ip), vehicle: Klucel (hydroxypropylcellulose) (HPC)
[23] = dose: 200.0 mg/kg/injection, schedule: Q01DX001 (ip), vehicle: Klucel (hydroxypropylcellulose) (HPC)
[24] = dose: 400.0 mg/kg/injection, schedule: Q01DX001 (ip), vehicle: Klucel (hydroxypropylcellulose) (HPC)
[25] = dose: 50.0 mg/kg/injection, schedule: Q01DX001 (ip), vehicle: saline
[26] = dose: 100.0 mg/kg/injection, schedule: Q01DX001 (ip), vehicle: saline
[27] = dose: 200.0 mg/kg/injection, schedule: Q01DX001 (ip), vehicle: saline
[28] = dose: 400.0 mg/kg/injection, schedule: Q01DX001 (ip), vehicle: saline

Measured: T/C

CCc1ccc(C(=O)c2ccccc2)c2c1C(=O)c1ccccc1C2=O
inactive: [1] 91 % of control | [2] 88 % of control | [3] 102 % of control

Cc1ccc(C)c(NS(=O)(=O)c2cc(Cl)c(Cl)cc2Cl)c1
inactive: [4] 98 % of control | [5] 96 % of control

Nc1nc(N)nc(SCCOCCSc2nc(N)nc(N)n2)n1
inactive: [6] 103 % of control | [7] 94 % of control | [8] 92 % of control

O=[N+]([O-])c1cc(CN2CCCCC2)c(O)c2cccnc12
inactive: dose: 75.0 mg/kg/injection, schedule: Q01DX001 (ip), vehicle: saline 101 % of control | dose: 150.0 mg/kg/injection, schedule: Q01DX001 (ip), vehicle: saline 106 % of control | dose: 300.0 mg/kg/injection, schedule: Q01DX001 (ip), vehicle: saline 101 % of control

Cc1ccnc(NC(=O)Nc2cc(F)ccc2F)c1
inactive: [4] 92 % of control and 103 % of control | [9] 101 % of control and 90 % of control | [10] 97 % of control | [5] 92 % of control and 89 % of control | [11] 90 % of control | [12] 93 % of control | [13] 94 % of control and 98 % of control | [14] 95 % of control and 90 % of control | [15] 87 % of control

O=C(O)CNC(=O)N1CCCC1
inactive: [16] 90 % of control | [17] 96 % of control | dose: 400.0 mg/kg/injection, schedule: Q04DX002 (ip), vehicle: saline 104 % of control

O=C(c1ccc([N+](=O)[O-])cc1)C1NC1c1ccccc1 (stereo unspecified)
inactive: [18] 91 % of control | [19] 97 % of control | [20] 100 % of control | [21] 91 % of control

CCCCCCCCCCC[CH2][Sn]([Cl])([CH2]CCCCCCCCCCC)[CH2]CCCCCCCCCCC
inactive: [1] 96 % of control | [2] 96 % of control | [3] 93 % of control

O=C(CC(=O)C(F)(F)C(F)(F)C(F)(F)F)C(F)(F)F
inactive: dose: 12.5 mg/kg/injection, schedule: Q01DX009 (ip), vehicle: saline 107 % of control | dose: 12.5 mg/kg/injection, schedule: Q04DX003 (ip), vehicle: saline 102 % of control | dose: 25.0 mg/kg/injection, schedule: Q01DX009 (ip), vehicle: saline 88 % of control | dose: 25.0 mg/kg/injection, schedule: Q04DX003 (ip), vehicle: saline 87 % of control | dose: 50.0 mg/kg/injection, schedule: Q04DX003 (ip), vehicle: saline 93 % of control

FC1=C(F)C2(F)C3CCC(O3)C2(F)C(Br)=C1F (stereo unspecified)
inactive: [22] 99 % of control | [10] 101 % of control | [23] 91 % of control | [12] 101 % of control | [24] 100 % of control | [15] 98 % of control

N#CSCc1cc([N+](=O)[O-])c(CSC#N)c([N+](=O)[O-])c1Cl
inactive: dose: 25.0 mg/kg/injection, schedule: Q01DX009 (ip), vehicle: other 89 % of control | dose: 100.0 mg/kg/injection, schedule: Q04DX003 (ip), vehicle: carboxymethylcellulose (CMC) 87 % of control | dose: 200.0 mg/kg/injection, schedule: Q04DX003 (ip), vehicle: carboxymethylcellulose (CMC) 93 % of control

CCOC(=O)c1c(O)cc(C)[nH]c1=O
inactive: [25] 102 % of control | [26] 96 % of control | [27] 104 % of control | [28] 104 % of control

CC1=C2[C@H]3OC(=O)[C@H](C)[C@@H]3CC[C@@]2(C)C=CC1=O
inactive: dose: 100.0 mg/kg/injection, schedule: Q01DX001 (ip), vehicle: other 103 % of control | dose: 200.0 mg/kg/injection, schedule: Q01DX001 (ip), vehicle: other 95 % of control

Nc1c(Cl)ncnc1NC1COC(CO)C1O (stereo unspecified)
inactive: [22] 100 % of control | [23] 110 % of control | [24] 100 % of control

CCCC(C)c1ccc(N=NC2C(=O)c3ccccc3C2=O)cc1 (stereo unspecified)
inactive: [25] 100 % of control | [26] 94 % of control | [27] 94 % of control | [28] 103 % of control

CCCOP(=O)(N1CC1(C)C)N1CC1(C)C (stereo unspecified)
active: [16] 201 % of control | [17] 155 % of control

O=C(O)c1ccc(S(=O)(=O)F)c(Cl)c1
inactive: [6] 100 % of control | [7] 102 % of control | [8] 89 % of control

CN(C)S(=O)(=O)Nc1cc(Cl)c(NS(=O)(=O)N(C)C)cc1Cl
inactive: [4] 94 % of control | [10] 91 % of control | [5] 96 % of control | [12] 93 % of control | [13] 102 % of control | [15] 98 % of control

CCOC(=O)C(CC)(OO)c1ccncc1Br (stereo unspecified)
inactive: dose: 25.0 mg/kg/injection, schedule: Q01DX001 (ip), vehicle: Klucel (hydroxypropylcellulose) (HPC) 101 % of control | dose: 50.0 mg/kg/injection, schedule: Q01DX001 (ip), vehicle: Klucel (hydroxypropylcellulose) (HPC) 104 % of control | dose: 50.0 mg/kg/injection, schedule: Q04DX003 (ip), vehicle: Klucel (hydroxypropylcellulose) (HPC) 101 % of control | [22] 100 % of control and 101 % of control | [10] 91 % of control | [12] 92 % of control

CN1CCCC(=O)NC1=O
inactive: dose: 100.0 mg/kg/injection, schedule: Q01DX009 (ip), vehicle: saline 96 % of control | dose: 100.0 mg/kg/injection, schedule: Q04DX003 (ip), vehicle: saline 104 % of control | dose: 200.0 mg/kg/injection, schedule: Q01DX009 (ip), vehicle: saline 97 % of control | dose: 200.0 mg/kg/injection, schedule: Q04DX003 (ip), vehicle: saline 98 % of control | dose: 400.0 mg/kg/injection, schedule: Q01DX009 (ip), vehicle: saline 102 % of control | dose: 400.0 mg/kg/injection, schedule: Q04DX003 (ip), vehicle: saline 95 % of control

CCCCCCN1CCCC(OC(=O)N(C)C)C1 (stereo unspecified)
inactive: dose: 25.0 mg/kg/injection, schedule: Q04DX002 (ip), vehicle: saline 113 % of control | dose: 50.0 mg/kg/injection, schedule: Q04DX002 (ip), vehicle: saline 103 % of control | [16] 100 % of control and 104 % of control

COc1cc(N=Nc2ccccc2OC)ccc1N
inactive: [18] 97 % of control | [19] 109 % of control | [20] 106 % of control | [21] 101 % of control

O=S(=O)(Nc1c(Cl)c(Cl)c(NS(=O)(=O)c2ccccc2)c(Cl)c1Cl)c1ccccc1
inactive: [4] 103 % of control | [5] 111 % of control | [13] 103 % of control

c1ccc([P+](c2ccccc2)(c2ccccc2)C2OCCO2)cc1
inactive: dose: 25.0 mg/kg/injection, schedule: Q04DX003 (ip), vehicle: saline with Tween-80 95 % of control | dose: 50.0 mg/kg/injection, schedule: Q04DX003 (ip), vehicle: saline with Tween-80 103 % of control

COc1cc2c(cc1OC)/C(=C\C(=O)N1CCCC1=O)CCC2
inactive: [4] 96 % of control | [10] 104 % of control | [5] 97 % of control | [12] 102 % of control | [13] 94 % of control | [15] 101 % of control

CCOP(=O)(OCCBr)C(c1ccccc1)(c1ccccc1)c1ccccc1 (stereo unspecified)
inactive: [9] 89 % of control | [11] 92 % of control | [14] 92 % of control
